Measured values: PMC12332266 (Frontiers in Pharmacology, 2025)
Read-outs that look alike come from different tables or passages of the source.

Columns and labels:
[1] = system: hiPSC-CM (iCell Cardiomyocytes^2); experiment: RTCA CardioECR assessment (impedance and electrophysiology parameters)
Method: (§1) Culture media change was performed every 2 days.
After seeding on fibronectin-coated xCELLigence ePlates (Agilent Technologies, Inc. Santa Clara, CA, USA), iCell^2 CM were monitored continuously through impedance electrodes. The following impedance parameters were measured: Cell Index (CI, measure of cell “health” and monolayer integrity), beating rate (BR) and amplitude (CI Amplitude, magnitude of contraction). Electrophysiology-like parameters (Field Potential Duration (FPD), considered as a surrogate for QT in in vivo studies, and Spike Amplitude (SA), depolarization induced by Na^+ channel opening) were measured starting from day 4–6, following the monolayer formation. […] All RTCA CardioECR data were double normalized (DMSO control and the baseline) with no further statistical group comparison for the normalized parameters. The variability of the data within the treatment groups was assessed by standard deviation.

[2] = system: hiPSC-CM (iCell Cardiomyocytes^2); experiment: Intracellular miRNA expression by RT-qPCR in hiPSC-CM pellets after 72-hour treatment
Method: as §1
Total RNA was extracted from hiPSC-CM using the miRNeasy 96 Kit (Qiagen, Hilden, Germany) following the manufacturer’s recommendations. After the extraction, RNA purity was assessed by NanoDrop™ 8000 Spectrophotometer (Thermo Fisher Scientific Inc.). 5–10 ng/μL of RNA per sample were reverse transcribed and pre-amplified by using the TaqMan™ Advanced miRNA cDNA Synthesis Kit (Thermo Fisher Scientific Inc.). The synthesized cDNA was used for RT-qPCR with selected TaqMan™ assays (Thermo Fischer Scientific Inc.). RT-qPCR was carried out following the Applied Biosciences TaqMan miRNA expression assay protocol on a ViiA7 instrument (Thermo Fisher Scientific, Inc.). […] Therefore, to maximize the number of drugs and concentrations, explored in the same study, we pooled the triplicates for intracellular profiling of miRNAs. Therefore, no statistical analysis was performed on the data of miRNA profiling in the pellets of hiPSC-CM.
Following RTCA CardioECR assessment, hiPSC-CM cell pellets were collected, and total RNA was extracted and purified to investigate miRNAs upregulation by RT-qPCR. […] For the initial assessment of intracellular miRNAs in 12 different treatments, encompassing various drug classes, we used a panel of 17 miRNAs, which we selected from the publicly available data focusing mainly on in vitro models and structural cardiotoxicants (Supplementary Table S2).

[3] = ref extensive literature search, cited from earlier work
[4] = hiPSC-CM, 72-hour treatment, at least 20% change, Supplementary Table 1
[5] = hiPSC-CM, 72-hour treatment, lowest concentration causing at least 20% change from baseline

SMILES: CC(C)C[C@H](NC(=O)[C@H](CCc1ccccc1)NC(=O)CN1CCOCC1)C(=O)N[C@@H](Cc1ccccc1)C(=O)N[C@@H](CC(C)C)C(=O)[C@@]1(C)CO1 [Carfilzomib]
- effect on BR at the lowest concentration tested ([1]; hiPSC-CM, 72-hour treatment): quiescence (beat stop)
- Field Potential Duration MEC ([1]; hiPSC-CM, 72-hour treatment, at least 10% change): 0.3 µM
- Contractility Amplitude MEC ([1]; hiPSC-CM, 72-hour treatment, at least 20% change): 0.3 µM
- Beating Rate MEC [1, 4]: 0.3 µM
- Cell Index MEC [1, 4]: 0.3 µM
- Spike Amplitude (SA) MEC ([1]; hiPSC-CM, 72-hour treatment, at least 40% change): 0.3 µM
- Beating rate (BR) MEC [1, 5]: 0.3 µM
- Cell index (CI) MEC [1, 5]: 0.3 µM
- RTCA, MEC (BR) ([1]; hiPSC-CM, change ≥20%, Table 2): 0.3 µM (CI, BR (Q))
- RTCA, MEC (CI) ([1]; hiPSC-CM, change ≥20%, Table 2): 0.3 µM (CI, BR (Q))
- hsa-miR-7-5p fold change, intracellular ([2]; 0.3 µM, 72 h): 8.1
- hsa-miR-29a-5p fold change, intracellular ([2]; 0.3 µM, 72 h): 0.4
- hsa-miR-96-5p fold change, intracellular ([2]; 0.3 µM, 72 h): 21.0
- hsa-miR-126-3p fold change, intracellular ([2]; 0.3 µM, 72 h): 2.1
- hsa-miR-133b fold change, intracellular ([2]; 0.3 µM, 72 h): 5.5
- hsa-miR-146b-5p fold change, intracellular ([2]; 0.3 µM, 72 h): 0.3
- hsa-miR-182-5p fold change, intracellular ([2]; 0.3 µM, 72 h): 12.6
- hsa-miR-185-3p fold change, intracellular ([2]; 0.3 µM, 72 h): 1.1
- hsa-miR-187-3p fold change, intracellular ([2]; 0.3 µM, 72 h): 0.7
- hsa-miR-208b-3p fold change, intracellular ([2]; 0.3 µM, 72 h): 1.1
- hsa-miR-365a-5p fold change, intracellular ([2]; 0.3 µM, 72 h): 0.2
- hsa-miR-7-5p fold change, intracellular ([2]; 1 µM, 72 h): 1.3
- hsa-miR-29a-5p fold change, intracellular ([2]; 1 µM, 72 h): 1.4
- hsa-miR-96-5p fold change, intracellular ([2]; 1 µM, 72 h): 5.6
- hsa-miR-126-3p fold change, intracellular ([2]; 1 µM, 72 h): 0.9
- hsa-miR-133b fold change, intracellular ([2]; 1 µM, 72 h): 0.3
- hsa-miR-146b-5p fold change, intracellular ([2]; 1 µM, 72 h): 0.08
- hsa-miR-182-5p fold change, intracellular ([2]; 1 µM, 72 h): 20.8
- hsa-miR-185-3p fold change, intracellular ([2]; 1 µM, 72 h): 9.0
- hsa-miR-187-3p fold change, intracellular ([2]; 1 µM, 72 h): 1.7
- hsa-miR-208b-3p fold change, intracellular ([2]; 1 µM, 72 h): 1.0
- hsa-miR-365a-5p fold change, intracellular ([2]; 1 µM, 72 h): 0.01
- hsa-miR-7-5p fold change, intracellular ([2]; 3 µM, 72 h): 2.3
- hsa-miR-96-5p fold change, intracellular ([2]; 3 µM, 72 h): 10.7
- hsa-miR-126-3p fold change, intracellular ([2]; 3 µM, 72 h): 0.5
- hsa-miR-133b fold change, intracellular ([2]; 3 µM, 72 h): 0.4
- hsa-miR-146b-5p fold change, intracellular ([2]; 3 µM, 72 h): 0.06
- hsa-miR-182-5p fold change, intracellular ([2]; 3 µM, 72 h): 14.0
- hsa-miR-185-3p fold change, intracellular ([2]; 3 µM, 72 h): 3.3
- hsa-miR-187-3p fold change, intracellular ([2]; 3 µM, 72 h): 2.1
- hsa-miR-208b-3p fold change, intracellular ([2]; 3 µM, 72 h): 1.0
- hsa-miR-365a-5p fold change, intracellular ([2]; 3 µM, 72 h): 0.04
- hsa-miR-7-5p fold change, intracellular ([2]; 10 µM, 72 h): 3.8
- hsa-miR-29a-5p fold change, intracellular ([2]; 10 µM, 72 h): 0.8
- hsa-miR-96-5p fold change, intracellular ([2]; 10 µM, 72 h): 1.6
- hsa-miR-126-3p fold change, intracellular ([2]; 10 µM, 72 h): 0.4
- hsa-miR-133b fold change, intracellular ([2]; 10 µM, 72 h): 0.3
- hsa-miR-146b-5p fold change, intracellular ([2]; 10 µM, 72 h): 0.01
- hsa-miR-182-5p fold change, intracellular ([2]; 10 µM, 72 h): 5.7
- hsa-miR-185-3p fold change, intracellular ([2]; 10 µM, 72 h): 0.2
- hsa-miR-187-3p fold change, intracellular ([2]; 10 µM, 72 h): 20.5
- hsa-miR-208b-3p fold change, intracellular ([2]; 10 µM, 72 h): 1.0
- hsa-miR-365a-5p fold change, intracellular ([2]; 10 µM, 72 h): 0.02
- miRNAs upregulated at the MEC overall (hiPSC-CM pellet) ([2]; fold change ≥2, 72 h): miR-126-3p, miR-133b, miR-182-5p, miR-184, miR-187-3p, miR-7-5p, miR-96-5p
- miRNAs hiPSC-CM pellet, MEC overall ([2]; lowest concentration tested which produced miRNA upregulation (fold change ≥2), 72 h): 0.3 µM
- Cmax total ([3]; Supplementary Table 1): 5.88 µM
- Cmax total ([3]; Table 1): 5.88 µM

SMILES: O=P1(N(CCCl)CCCl)NCCCO1 (centres unmarked) [Cyclophosphamide]
- Beating rate (BR) MEC [1, 5]: ND (ND – not detected, magnitude of change was lower than 20%)
- RTCA, MEC (BR) ([1]; hiPSC-CM, change ≥20%, Table 2): ND (ND – not detected, magnitude of change was lower than 20% for CI/BR)
- RTCA, MEC (CI) ([1]; hiPSC-CM, change ≥20%, Table 2): ND (ND – not detected, magnitude of change was lower than 20% for CI/BR)
- miRNAs hiPSC-CM pellet, MEC overall [2]: 3 µM (96-5p, 182-5p, 185-3p, 208b-3p)
- miRNAs upregulated at the MEC overall (hiPSC-CM pellet) [2]: 3 µM (96-5p, 182-5p, 185-3p, 208b-3p)
- Cmax total ([3]; Supplementary Table 1): 126 µM
- Cmax total ([3]; Table 1): 126.00 µM

SMILES: Cc1nc(Nc2ncc(C(=O)Nc3c(C)cccc3Cl)s2)cc(N2CCN(CCO)CC2)n1 [Dasatinib]
- Cell index (CI) MEC [1, 5]: 1 µM
- RTCA, MEC (CI) ([1]; hiPSC-CM, change ≥20%, Table 2): 1 µM
- Beating Rate MEC ([1]; human, 72 h): 0.3 µM
- Beating rate (BR) MEC ([1]; human, 72 h): 0.3 µM
- Cell Index MEC ([1]; human, 72 h): 1 µM
- Contractility Amplitude MEC ([1]; human, 72 h): 10 µM
- RTCA, MEC (BR) ([1]; human, 72 h): 0.3 µM
- Spike Amplitude (SA) MEC ([1]; human, 72 h): 0.3 µM
- miRNAs hiPSC-CM pellet, MEC overall [2]: 0.3 µM
- miRNAs upregulated at the MEC overall (hiPSC-CM pellet) [2]: miR-96-5p, miR-133b, miR-182-5p, miR-185-3p, miR-365a-5p
- hsa-miR-7-5p fold change, intracellular ([2]; 0.3 µM, 72 h): 1.4
- hsa-miR-96-5p fold change, intracellular ([2]; 0.3 µM, 72 h): 9.0
- hsa-miR-126-3p fold change, intracellular ([2]; 0.3 µM, 72 h): 1.6
- hsa-miR-133b fold change, intracellular ([2]; 0.3 µM, 72 h): 2.7
- hsa-miR-146b-5p fold change, intracellular ([2]; 0.3 µM, 72 h): 0.8
- hsa-miR-182-5p fold change, intracellular ([2]; 0.3 µM, 72 h): 2.5
- hsa-miR-185-3p fold change, intracellular ([2]; 0.3 µM, 72 h): 6.4
- hsa-miR-187-3p fold change, intracellular ([2]; 0.3 µM, 72 h): 1.7
- hsa-miR-208b-3p fold change, intracellular ([2]; 0.3 µM, 72 h): 1.2
- hsa-miR-365a-5p fold change, intracellular ([2]; 0.3 µM, 72 h): 5.4
- hsa-miR-[…] change, intracellular ([2]; 0.3 µM, 72 h): 0.8
- hsa-miR-7-5p fold change, intracellular ([2]; 1 µM, 72 h): 0.8
- hsa-miR-29a-5p fold change, intracellular ([2]; 1 µM, 72 h): 3.6
- hsa-miR-96-5p fold change, intracellular ([2]; 1 µM, 72 h): 4.7
- hsa-miR-126-3p fold change, intracellular ([2]; 1 µM, 72 h): 2.1
- hsa-miR-133b fold change, intracellular ([2]; 1 µM, 72 h): 1.6
- hsa-miR-146b-5p fold change, intracellular ([2]; 1 µM, 72 h): 0.9
- hsa-miR-182-5p fold change, intracellular ([2]; 1 µM, 72 h): 0.9
- hsa-miR-185-3p fold change, intracellular ([2]; 1 µM, 72 h): 1.5
- hsa-miR-187-3p fold change, intracellular ([2]; 1 µM, 72 h): 0.5
- hsa-miR-208b-3p fold change, intracellular ([2]; 1 µM, 72 h): 1.2
- hsa-miR-365a-5p fold change, intracellular ([2]; 1 µM, 72 h): 0.8
- hsa-miR-[…] change, intracellular ([2]; 1 µM, 72 h): 0.8
- hsa-miR-7-5p fold change, intracellular ([2]; 3 µM, 72 h): 0.9
- hsa-miR-29a-5p fold change, intracellular ([2]; 3 µM, 72 h): 4.0
- hsa-miR-126-3p fold change, intracellular ([2]; 3 µM, 72 h): 1.1
- hsa-miR-133b fold change, intracellular ([2]; 3 µM, 72 h): 3.3
- hsa-miR-146b-5p fold change, intracellular ([2]; 3 µM, 72 h): 6.4
- hsa-miR-182-5p fold change, intracellular ([2]; 3 µM, 72 h): 0.8
- hsa-miR-185-3p fold change, intracellular ([2]; 3 µM, 72 h): 7.9
- hsa-miR-187-3p fold change, intracellular ([2]; 3 µM, 72 h): 1.4
- hsa-miR-208b-3p fold change, intracellular ([2]; 3 µM, 72 h): 1.2
- hsa-miR-365a-5p fold change, intracellular ([2]; 3 µM, 72 h): 0.7
- hsa-miR-[…] change, intracellular ([2]; 3 µM, 72 h): 0.8
- hsa-miR-7-5p fold change, intracellular ([2]; 10 µM, 72 h): 0.5
- hsa-miR-29a-5p fold change, intracellular ([2]; 10 µM, 72 h): 7.4
- hsa-miR-96-5p fold change, intracellular ([2]; 10 µM, 72 h): 0.5
- hsa-miR-126-3p fold change, intracellular ([2]; 10 µM, 72 h): 1.8
- hsa-miR-133b fold change, intracellular ([2]; 10 µM, 72 h): 1.1
- hsa-miR-146b-5p fold change, intracellular ([2]; 10 µM, 72 h): 0.4
- hsa-miR-182-5p fold change, intracellular ([2]; 10 µM, 72 h): 0.4
- hsa-miR-185-3p fold change, intracellular ([2]; 10 µM, 72 h): 3.3
- hsa-miR-187-3p fold change, intracellular ([2]; 10 µM, 72 h): 0.6
- hsa-miR-208b-3p fold change, intracellular ([2]; 10 µM, 72 h): 1.6
- hsa-miR-365a-5p fold change, intracellular ([2]; 10 µM, 72 h): 3.9
- hsa-miR-[…] change, intracellular ([2]; 10 µM, 72 h): 0.7
- Cmax total ([3]; Supplementary Table 1): 0.97 µM
- Cmax total ([3]; Table 1): 0.97 µM
